Experimental data: ChEMBL document CHEMBL1201862, “PubChem BioAssay data set” (2004)
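Exposure lasted 48 hours, with cells grown in 96-well plates and compounds tested at five concentrations. GI50 = concentration required for 50% inhibition of growth.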 Activity calls are given as the source filed them. No stated cut-off is given here; in the data, active = GI50 up to about 1.1 µM and inactive = higher.

How the values were obtained:
Assay in all cases: DTP human tumour cell line panel, 48 h
UACC-62 = system: UACC-62
RXF 393 = system: RXF 393
Malme-3M = system: Malme-3M
SNB-19 = system: SNB-19
KM12 = system: KM12
TK-10 = system: TK-10
SK-MEL-2 = system: SK-MEL-2
HT-29 = system: HT-29
SW-620 = system: SW-620
UO-31 = system: UO-31
SK-MEL-5 = system: SK-MEL-5
SN12C = system: SN12C
SNB-75 = system: SNB-75
HOP-62 = system: HOP-62
OVCAR-8 = system: OVCAR-8
NCI-H522 = system: NCI-H522
SF-539 = system: SF-539
COLO 205 = system: COLO 205
ACHN = system: ACHN
MOLT-4 = system: MOLT-4

Measured: GI50

Cc1nnc(Nc2ccc(Cl)cc2)o1
inactive: UACC-62 > 10 µM | RXF 393 > 10 µM | Malme-3M > 10 µM | SNB-19 > 10 µM | KM12 > 10 µM | TK-10 > 10 µM | SK-MEL-2 > 10 µM | HT-29 > 10 µM | SW-620 > 10 µM | UO-31 > 10 µM | SK-MEL-5 > 10 µM | SN12C > 10 µM | SNB-75 > 10 µM | HOP-62 > 10 µM | OVCAR-8 > 10 µM | NCI-H522 > 10 µM | SF-539 > 10 µM | COLO 205 > 10 µM | ACHN > 10 µM

CC(=O)[C@H]1CCC2[C@@H]3CC=C4C(O)C(OS(=O)(=O)O)CC[C@]4(C)C3CC[C@@]21C (stereo partly drawn)
inactive: UACC-62 > 100 µM | RXF 393 > 100 µM | MOLT-4 > 100 µM | Malme-3M > 100 µM | SNB-19 > 100 µM | KM12 > 100 µM | SK-MEL-2 > 100 µM | HT-29 > 100 µM | SW-620 > 100 µM | UO-31 > 100 µM | SK-MEL-5 > 100 µM | SN12C > 100 µM | SNB-75 > 100 µM | HOP-62 > 100 µM | OVCAR-8 > 100 µM | NCI-H522 > 100 µM | SF-539 > 100 µM | COLO 205 > 100 µM

CC1C(=O)N(c2ccccc2)NC12CCCc1ccccc12 (stereo not drawn)
inactive: UACC-62 > 100 µM | RXF 393 > 100 µM | MOLT-4 > 100 µM | Malme-3M > 100 µM | SNB-19 > 100 µM | KM12 > 100 µM | TK-10 > 100 µM | SK-MEL-2 > 100 µM | HT-29 > 100 µM | SW-620 > 100 µM | UO-31 > 100 µM | SK-MEL-5 > 100 µM | SN12C > 100 µM | SNB-75 > 100 µM | HOP-62 > 100 µM | OVCAR-8 > 100 µM | NCI-H522 > 100 µM | SF-539 > 100 µM | COLO 205 > 100 µM | ACHN > 100 µM

CN(C)c1ccc(/C=C2/SC(=S)NC2=O)cc1
inactive: UACC-62 > 100 µM | RXF 393 > 100 µM | MOLT-4 > 100 µM | Malme-3M > 100 µM | SNB-19 > 100 µM | KM12 50.7 µM | TK-10 21.2 µM | SK-MEL-2 > 100 µM | HT-29 > 100 µM | SW-620 > 100 µM | UO-31 > 100 µM | SK-MEL-5 > 100 µM | SN12C > 100 µM | SNB-75 95.3 µM | HOP-62 52.2 µM | OVCAR-8 > 100 µM | NCI-H522 > 100 µM | SF-539 > 100 µM | COLO 205 > 100 µM | ACHN > 100 µM

O=C(O)c1ccc(NS(=O)(=O)Cc2ccccc2)cc1
inactive: UACC-62 > 100 µM | RXF 393 > 100 µM | MOLT-4 > 100 µM | Malme-3M > 100 µM | SNB-19 > 100 µM | KM12 > 100 µM | TK-10 > 100 µM | SK-MEL-2 > 100 µM | HT-29 > 100 µM | SW-620 > 100 µM | UO-31 > 100 µM | SK-MEL-5 > 100 µM | SN12C > 100 µM | SNB-75 > 100 µM | HOP-62 > 100 µM | OVCAR-8 > 100 µM | NCI-H522 > 100 µM | SF-539 > 100 µM | COLO 205 > 100 µM | ACHN > 100 µM

COCCO [2-METHOXYETHANOL]
inactive: UACC-62 > 100 µM | RXF 393 > 100 µM | MOLT-4 > 100 µM | Malme-3M > 100 µM | SNB-19 > 100 µM | KM12 > 100 µM | SK-MEL-2 > 100 µM | HT-29 > 100 µM | SW-620 > 100 µM | UO-31 > 87.3 µM | SK-MEL-5 > 100 µM | SN12C > 100 µM | SNB-75 > 64.6 µM | HOP-62 > 78.2 µM | OVCAR-8 > 100 µM | NCI-H522 > 100 µM | SF-539 > 100 µM | COLO 205 > 100 µM

NC(Cc1c[nH]c2ccccc12)C(=O)O (stereo not drawn) [DL-TRYPTOPHAN]
inactive: UACC-62 > 300 µM | RXF 393 > 300 µM | MOLT-4 > 300 µM | Malme-3M > 300 µM | SNB-19 > 300 µM | KM12 > 300 µM | SK-MEL-2 > 300 µM | HT-29 > 300 µM | SW-620 > 300 µM | UO-31 > 300 µM | SK-MEL-5 > 300 µM | SN12C 3.74 µM | SNB-75 > 300 µM | HOP-62 > 300 µM | OVCAR-8 231 µM | NCI-H522 > 300 µM | SF-539 > 300 µM | COLO 205 > 300 µM
